Experimental data from patent US10765114B2, “4-amino-6-(pyridyl and 2-substitutedphenyl)-picolinates and 6-amino-2-(pyridyl and 2-substitutedphenyl)-pyrimidine-4-carboxylates and their use as herbicides” (Dow AgroSciences LLC, priority 2013, dated 2020).

tested on: Key Broadleaf Weed and Crop Species; test: Post-Emergent Test II (Table 5); type: in vivo; settings: Abutilon theophrasti, post-emergence, 336 h, ABUTH: velvetleaf (Abutilon theophrasti), application rate 70 (kg ai/ha; footnote: g ai/ha), read-out: Visual Growth Reduction (%) 14 Days After Application ABUTH
Method in brief: (§1)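 Visual injury ratings (0 = no injury, 100 = complete kill) were taken 14 days after treatment relative to untreated plants. Seedlings at the first or second true leaf stage received an overhead spray at 187 L/ha, and solvent-blank sprayed plants served as controls.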

| Structure (SMILES) | pest or weed control at 70 g/ha [%] |
| --- | --- |
| C#Cc1c(-c2cc(N)c(Cl)c(C(=O)OC)n2)ccc(Cl)c1F [Compound 75, methyl 4-amino-3-chloro-6-(4-chloro-2-ethynyl-3-fluorophenyl)picolinate] | 0 to 29 |

same assay, conditions: Abutilon theophrasti, post-emergence, 336 h, ABUTH: velvetleaf (Abutilon theophrasti), application rate 140 (kg ai/ha; footnote: g ai/ha), read-out: Visual Growth Reduction (%) 14 Days After Application ABUTH

| Structure (SMILES) | pest or weed control at 140 g/ha [%] |
| --- | --- |
| C#Cc1c(-c2cc(N)c(Cl)c(C(=O)OC)n2)ccc(Cl)c1F [Compound 75, methyl 4-amino-3-chloro-6-(4-chloro-2-ethynyl-3-fluorophenyl)picolinate] | 0 to 29 |

same assay, conditions: Amaranthus retroflexus, post-emergence, 336 h, AMARE: redroot pigweed (Amaranthus retroflexus), application rate 70 (kg ai/ha; footnote: g ai/ha), read-out: Visual Growth Reduction (%) 14 Days After Application AMARE

| Structure (SMILES) | pest or weed control at 70 g/ha [%] |
| --- | --- |
| C#Cc1c(-c2cc(N)c(Cl)c(C(=O)OC)n2)ccc(Cl)c1F [Compound 75, methyl 4-amino-3-chloro-6-(4-chloro-2-ethynyl-3-fluorophenyl)picolinate] | 0 to 29 |

same assay, conditions: Amaranthus retroflexus, post-emergence, 336 h, AMARE: redroot pigweed (Amaranthus retroflexus), application rate 140 (kg ai/ha; footnote: g ai/ha), read-out: Visual Growth Reduction (%) 14 Days After Application AMARE

| Structure (SMILES) | pest or weed control at 140 g/ha [%] |
| --- | --- |
| C#Cc1c(-c2cc(N)c(Cl)c(C(=O)OC)n2)ccc(Cl)c1F [Compound 75, methyl 4-amino-3-chloro-6-(4-chloro-2-ethynyl-3-fluorophenyl)picolinate] | 0 to 29 |

same assay, conditions: Brassica napus, post-emergence, 336 h, BRSSS: oilseed rape, canola (Brassica napus), application rate 70 (kg ai/ha; footnote: g ai/ha), read-out: Visual Growth Reduction (%) 14 Days After Application BRSSS

| Structure (SMILES) | pest or weed control at 70 g/ha [%] |
| --- | --- |
| C#Cc1c(-c2cc(N)c(Cl)c(C(=O)OC)n2)ccc(Cl)c1F [Compound 75, methyl 4-amino-3-chloro-6-(4-chloro-2-ethynyl-3-fluorophenyl)picolinate] | 0 to 29 |

same assay, conditions: Brassica napus, post-emergence, 336 h, BRSSS: oilseed rape, canola (Brassica napus), application rate 140 (kg ai/ha; footnote: g ai/ha), read-out: Visual Growth Reduction (%) 14 Days After Application BRSSS

| Structure (SMILES) | pest or weed control at 140 g/ha [%] |
| --- | --- |
| C#Cc1c(-c2cc(N)c(Cl)c(C(=O)OC)n2)ccc(Cl)c1F [Compound 75, methyl 4-amino-3-chloro-6-(4-chloro-2-ethynyl-3-fluorophenyl)picolinate] | 0 to 29 |

same assay, conditions: Chenopodium album, post-emergence, 336 h, CHEAL: lambsquarters (Chenopodium album), application rate 70 (kg ai/ha; footnote: g ai/ha), read-out: Visual Growth Reduction (%) 14 Days After Application CHEAL

| Structure (SMILES) | pest or weed control at 70 g/ha [%] |
| --- | --- |
| C#Cc1c(-c2cc(N)c(Cl)c(C(=O)OC)n2)ccc(Cl)c1F [Compound 75, methyl 4-amino-3-chloro-6-(4-chloro-2-ethynyl-3-fluorophenyl)picolinate] | 75 to 84 |

same assay, conditions: Chenopodium album, post-emergence, 336 h, CHEAL: lambsquarters (Chenopodium album), application rate 140 (kg ai/ha; footnote: g ai/ha), read-out: Visual Growth Reduction (%) 14 Days After Application CHEAL

| Structure (SMILES) | pest or weed control at 140 g/ha [%] |
| --- | --- |
| C#Cc1c(-c2cc(N)c(Cl)c(C(=O)OC)n2)ccc(Cl)c1F [Compound 75, methyl 4-amino-3-chloro-6-(4-chloro-2-ethynyl-3-fluorophenyl)picolinate] | 75 to 84 |

same assay, conditions: Euphorbia heterophylla, post-emergence, 336 h, EPHHL: wild poinsettia (Euphorbia heterophylla), application rate 70 (kg ai/ha; footnote: g ai/ha), read-out: Visual Growth Reduction (%) 14 Days After Application EPHHL

| Structure (SMILES) | pest or weed control at 70 g/ha [%] |
| --- | --- |
| C#Cc1c(-c2cc(N)c(Cl)c(C(=O)OC)n2)ccc(Cl)c1F [Compound 75, methyl 4-amino-3-chloro-6-(4-chloro-2-ethynyl-3-fluorophenyl)picolinate] | 0 to 29 |

same assay, conditions: Euphorbia heterophylla, post-emergence, 336 h, EPHHL: wild poinsettia (Euphorbia heterophylla), application rate 140 (kg ai/ha; footnote: g ai/ha), read-out: Visual Growth Reduction (%) 14 Days After Application EPHHL

| Structure (SMILES) | pest or weed control at 140 g/ha [%] |
| --- | --- |
| C#Cc1c(-c2cc(N)c(Cl)c(C(=O)OC)n2)ccc(Cl)c1F [Compound 75, methyl 4-amino-3-chloro-6-(4-chloro-2-ethynyl-3-fluorophenyl)picolinate] | 0 to 29 |

same assay, conditions: Helianthus annuus, post-emergence, 336 h, HELAN: sunflower (Helianthus annuus), application rate 70 (kg ai/ha; footnote: g ai/ha), read-out: Visual Growth Reduction (%) 14 Days After Application HELAN

| Structure (SMILES) | pest or weed control at 70 g/ha [%] |
| --- | --- |
| C#Cc1c(-c2cc(N)c(Cl)c(C(=O)OC)n2)ccc(Cl)c1F [Compound 75, methyl 4-amino-3-chloro-6-(4-chloro-2-ethynyl-3-fluorophenyl)picolinate] | 0 to 29 |

same assay, conditions: Helianthus annuus, post-emergence, 336 h, HELAN: sunflower (Helianthus annuus), application rate 140 (kg ai/ha; footnote: g ai/ha), read-out: Visual Growth Reduction (%) 14 Days After Application HELAN

| Structure (SMILES) | pest or weed control at 140 g/ha [%] |
| --- | --- |
| C#Cc1c(-c2cc(N)c(Cl)c(C(=O)OC)n2)ccc(Cl)c1F [Compound 75, methyl 4-amino-3-chloro-6-(4-chloro-2-ethynyl-3-fluorophenyl)picolinate] | 0 to 29 |

same assay, conditions: Viola tricolor, post-emergence, 336 h, VIOTR: wild pansy (Viola tricolor), application rate 70 (kg ai/ha; footnote: g ai/ha), read-out: Visual Growth Reduction (%) 14 Days After Application VIOTR

| Structure (SMILES) | pest or weed control at 70 g/ha [%] |
| --- | --- |
| C#Cc1c(-c2cc(N)c(Cl)c(C(=O)OC)n2)ccc(Cl)c1F [Compound 75, methyl 4-amino-3-chloro-6-(4-chloro-2-ethynyl-3-fluorophenyl)picolinate] | 0 to 29 |

same assay, conditions: Viola tricolor, post-emergence, 336 h, VIOTR: wild pansy (Viola tricolor), application rate 140 (kg ai/ha; footnote: g ai/ha), read-out: Visual Growth Reduction (%) 14 Days After Application VIOTR

| Structure (SMILES) | pest or weed control at 140 g/ha [%] |
| --- | --- |
| C#Cc1c(-c2cc(N)c(Cl)c(C(=O)OC)n2)ccc(Cl)c1F [Compound 75, methyl 4-amino-3-chloro-6-(4-chloro-2-ethynyl-3-fluorophenyl)picolinate] | 0 to 29 |

tested on: Key Grass and Sedge Weeds as well as Grass Crops; test: Post-Emergent Test II (Table 6); type: in vivo; settings: post-emergence, 336 h, CYPSS, 70 g ai/ha, 14 days after application, read-out: Visual Growth Reduction (%) 14 Days After Application CYPSS
Method in brief: as §1

| Structure (SMILES) | pest or weed control at 70 g/ha [%] |
| --- | --- |
| C#Cc1c(-c2cc(N)c(Cl)c(C(=O)OC)n2)ccc(Cl)c1F [Compound 75, methyl 4-amino-3-chloro-6-(4-chloro-2-ethynyl-3-fluorophenyl)picolinate] | 0 to 29 |
